Where two headings read alike, the source gives them in different places. Values belong to the molecule of their own block, whether it stands above or below them.
Columns and labels:
[1] = Pharmacokinetics of gemcitabine (dFdC) and dFdU in plasma of PAN02 bearing BDF-1 mice; assay type: in vivo; conditions: for AUC, dFdC + PHY906: PHY906 500 mg/kg 30 min before gemcitabine; for AUC, dFdC alone: gemcitabine 600 mg/kg
Experimental: (§1) Plasma Handling: The mouse plasma was separated from the blood by centrifugation at 10,000 g at 4° C. for 10 min.
b) Gemcitabine-containing plasma: The plasma (50 μl) was extracted with 200 μl of acetonitrile (ACN) in the presence of 5 μl of 0.1 mM AZT as an internal standard. After centrifugation, the supernatant was dried by a Speedvac, reconstituted with 100 μl of solution containing 2.5% ACN and 97.5% of 15 mM ammonium acetate (pH 5.0).
(§2) The resultant analyte was then analyzed by HPLC with UV absorption and/or radioactivity.
To determine, for a future clinical trial, if PHY906 would change the metabolism of gemcitabine, a pharmacokinetics analysis in mice bearing pancreatic cancer was performed. Mice were divided into three sets of 15: gemcitabine only, gemcitabine plus PHY906, and vehicle control. Each mouse in the set was bled twice at two different time points. Plasma was processed as described in Materials and Methods and analyzed by HPLC with radioactivity confirmation of peak identity and quantitation.

[2] = Pharmacokinetics of CPT-11/FU/LV in BDF-1 mice bearing Colon 38 tumor; assay type: in vivo; conditions: triple combination CPT-11/FU/LV
Description: The pharmacokinetic data of CPT-11/FU/LV in BDF-1 mice bearing Colon 38 tumor in the presence and absence of PHY906 are shown in FIGS. 18-20. PHY906-6 is a clinical batch of PHY906, containing 10% excipient (starch).

[3] = Determination of CPT-11 dose in non-tumor bearing BDF-1 mice (weight loss, death); assay type: in vivo; conditions: single i.p. bolus
Experimental: Animal weight loss was monitored as an indication of toxicity caused by anticancer chemotherapy agents. The effect of CPT-11 on weight loss in non-tumor bearing BDF-1 mice was studied using six different dosages: 100, 200, 300, 400, 600, or 800 mg/kg body weight to determine the maximum tolerable dose in mice. A single bolus dose of CPT-11 was administered intraperitoneally (i.p.) at the beginning of the study, and weight loss was monitored daily for 12 days.
One dose of CPT-11 was administered i.p. to each mouse at the beginning of the study, and the weight loss of the animal was then monitored daily for 12 days.

[4] = Host toxicity (body weight loss, mortality, blood cell counts) in chemotherapy treated BDF-1 mice bearing Colon 38 tumor; assay type: in vivo
Experimental: Anti-Tumor Studies: Murine Colon 38 (1-2×10^6 cells in 0.1 ml PBS) or human HepG2 cells (1-2×10^6 cells in 0.1 ml PBS) were transplanted subcutaneously into BDF1 or NCr athymic nude mice, respectively. The length and width of the tumors were measured daily with sliding calipers. The tumor weight was estimated according to the following formula (Pizzorno G, Wiegand R, Lentz S, et al., Cancer Res. 52:1660-1665 (1992)): Tumor weight (mg)=length (mm)×width (mm)^2/2.
After 10 to 14 days, mice (five animals/group) with tumor weights ranging from 150-200 mg were selected for drug studies (Guo X, Lerner-Tung M, Chen H X, et al., Biochem Pharmacol 49:1111-1116 (1995)). Mice were sacrificed when the tumor size reached 10% of body weight. PHY906 was administered orally either alone or with anti-cancer chemotherapeutic agents. The effect of PHY906 on antitumor efficacy and the reduction of toxicity by the agents were evaluated. CPT-11 was given intraperitoneally (i.p.) 30 min after PHY906 administration with the selected dose. The regimen of FU/LV combination therapy was given as follows:
The first day of treatment was defined as day 0. PHY906 was given orally twice a day (10 am and 3 pm) for either 4 or 8 days beginning on day 0. For the control group, mice were administrated a vehicle, either PBS for i.p. or H2O for p.o. (oral administration). Animals were monitored for mortality, weight loss, and tumor size daily.
Blood Cell Counts: Blood (20 μl) was taken from mice on days 0, 3, 6, 9 and 12 with micro-capillary tubes. Blood was then be diluted to 200 μl with normal saline (0.85% Sodium Chloride). WBC, RBC and platelets were counted by a BAKER SYSTEM 9100™ […] (Biochem ImmunoSystems Inc., Allentown, Pa. 18103-9562).
PHY906 was evaluated as a modulator of CPT-11 therapy for toxic side effects in mice inoculated with Colon 38 tumor cells. Based on the previous findings (Example 2), a single bolus dose of 400 mg/kg CPT-11 was selected to study the effect of PHY906 on weight-loss associated with toxicity of CPT-11. To evaluate whether PHY906 impairs the antitumor efficacy of CPT-11, mice were implanted subcutaneously with Colon 38 tumor cells. Ten to 14 days after inoculation, mice were treated with CPT-11 (400 mg/kg, i.p.) in the absence or presence of PHY906, which was given orally twice a day at varying doses (125 mg/kg, 250 mg/kg, and 500 mg/kg). PHY906 treatment was continued at the dose indicated for 8 consecutive days.
Mice were divided into four groups with different treatment regimens: Group (A) treatment with vehicle; Group (B) treatment with a single dose of 400 mg/kg CPT-11 by i.p. injection; Group (C) treatment with PHY906 (500 mg/kg/b.i.d.) alone; or Group (D) treatment with a single dose of 400 mg/kg CPT-11 plus 500 mg/kg/b.i.d. PHY906 for 4 or 8 days. The sequence of each treatment regimen appears in Materials and Methods. As depicted in Table 9, 35 of 35 tumor-bearing mice (100%) from Group A and 15 of 15 mice (100%) from Group C survived treatment with either vehicle or PHY906 alone for 4 or 8 days, indicating no or very low toxicity for PHY906.

[5] = Toxicity (tolerable dose, body weight loss, death) in nude mice bearing human HepG2 xenografts; assay type: in vivo, NCr-nude mice
Experimental: Weight loss was observed immediately after CPT-11 treatment and continued for six days in mice injected with 400 mg/kg of CPT-11. These animals gradually recovered their original body weight on day 12. […] The maximum tolerable dose of CPT-11 in nude mice bearing the human HepG2 xenografts was 200 mg/kg (data not shown).
Human HepG2 tumor cells were implanted into NCr-nude mice to test the effect of PHY906 on the antitumor activity of CPT-11. […] CPT-11 (200 mg/kg, i.p.) was given on day 0. PHY906 was given twice daily at 500 mg/kg starting on day 0.
Based upon the known pharmacological profiles of herbs contained in PHY906, it was speculated that the enhancing effects might act through immunological and/or hematological systems in normal mice. Therefore, experiments were designed to test the hypothesis in nude mice, which are deficient in immunological and hematological systems. Human hepatocellular carcinoma HepG2 cells were implanted into NCr-nude mice to test the effect of PHY906 on the antitumor activity of CPT-11. […] CPT-11 (200 mg/kg, i.p.) was given on day 0. PHY906 was given twice daily at 500 mg/kg starting on day 0 and continued for 8 days. As shown in 31, PHY906 enhanced the antitumor effect of CPT-11 on human HepG2 xenografts in nude mice.

[6] = test system: colorectal cancer; conditions: cited from earlier work; for Median survival time / Median time to disease progression: NS
[7] = test system: hepatocellular carcinoma; conditions: cited from earlier work
[8] = Pharmacokinetics of capecitabine in animal models; assay type: in vivo, mouse
Experimental: as §1
a) Capecitabine-containing sample: The plasma (50 μl) was extracted with 200 μl of acetonitrile in the presence of 10 μl of 5-iodouracil (IU)(50 μg/ml) as an internal standard. After centrifugation, the supernatant from capecitabine-containing sample was dried by a speedvac, reconstituted with 50 μl of 0.1 M sodium acetate buffer (pH 4.8), and extracted with 1.3 ml of water-saturated ethyl acetate. The organic layer was separated after centrifugation (10,000 g at 4° C. for 10 min), dried by a speedvac and reconstituted with 100 μl of water.
as §2

[9] = CPT-11 400 mg/kg, 1 day, alone, observed 14 days

Cmax, dFdC + PHY906 ([1]; Radioactivity detection): 48000 ng/mL
Cmax, dFdC alone ([1]; Radioactivity detection): 31000 ng/mL
Tmax, dFdC + PHY906 ([1]; Radioactivity detection): 2 h
Tmax, dFdC alone ([1]; Radioactivity detection): 1 h
T½, dFdC + PHY906 ([1]; Radioactivity detection): 0.82 h
T½, dFdC alone ([1]; Radioactivity detection): 1.55 h
AUC, dFdC + PHY906 ([1]; Radioactivity detection): 8.5 mg·min/mL
AUC, dFdC alone ([1]; Radioactivity detection): 5.8 mg·min/mL
Cmax, dFdC + PHY906 ([1]; UV detection): 22000 ng/mL
Cmax, dFdC alone ([1]; UV detection): 14000 ng/mL
Tmax, dFdC + PHY906 ([1]; UV detection): 2 h
Tmax, dFdC alone ([1]; UV detection): 1 h
T½, dFdC + PHY906 ([1]; UV detection): 1.16 h
T½, dFdC alone ([1]; UV detection): 1.64 h
AUC, dFdC + PHY906 ([1]; UV detection): 4.4 mg·min/mL
AUC, dFdC alone ([1]; UV detection): 3.1 mg·min/mL
Levels in circulation in the presence or absence of PHY906 ([1]; plasma): not a dramatic difference
Structure (SMILES): O=c1ccn(C2OC(CO)C(O)C2(F)F)c(=O)[nH]1 (stereo not shown) [dFdU]

Structure (SMILES): CCc1c2c(nc3ccc(O)cc13)-c1cc3c(c(=O)n1C2)COC(=O)[C@]3(O)CC [SN-38]
Level in plasma, liver, or tumor after PHY906 co-administration [2]: remains unchanged

Structure (SMILES): CCc1c2c(nc3ccc(OC(=O)N4CCC(N5CCCCC5)CC4)cc13)-c1cc3c(c(=O)n1C2)COC(=O)[C@]3(O)CC [CPT-11, Irinotecan]
Dosages with little effect on body weight [3]: lower than 200 mg/kg
Doses resulting in animal death on the second day [3]: greater than or equal to 600 mg/kg
Doses mice were able to tolerate ([3]; 12 days): up to 400 mg/kg
Survival [4, 9]: 82.5%
Total No. of Mice Survived N [4, 9]: 33
Animal Death (Death/Total) ([4]; CPT-11 treated mice, observed for 14 days): 7/40
Maximum tolerable dose [5]: 200 mg/kg
Level in tumor or liver tissues after PHY906 co-administration [2]: no significant change
AUC in plasma after co-administration of PHY906 ([2]; PHY906-6): increases
Response rate, second-line therapy ([6]; advanced colorectal cancer): 10%-15%

AUCs of FU and its nucleoside/nucleotide metabolites (FU+FUR+FUMP) in plasma or liver after PHY906 co-administration [2]: change
Structure (SMILES): O=c1[nH]cc(F)c(=O)[nH]1 [FU, 5-fluorouracil]
Response rate in patients with advanced disease ([6]; human, in vivo): 10%-12%

Structure (SMILES): CCCCCOC(=O)Nc1nc(=O)n([C@@H]2O[C@H](C)[C@@H](O)[C@H]2O)cc1F [capecitabine, 5′-deoxy-5-fluoro-N-[(pentyloxy)carbonyl]-cytidine]
Response rate ([7]; 55 patients with nonresectable hepatobiliary carcinoma): 13%
Response rate ([7]; hepatocellular carcinoma / liver cancer, systemic chemotherapy): 13%
Median survival time ([6]; Hoff et al. 2001): 380 days
Median time to disease progression ([6]; Hoff et al. 2001): 128 days
Response rate ([6]; Hoff et al. 2001, P=0.0014): 21%
Median survival time ([6]; Van Cutsem et al. 2001): 404 days
Median time to disease progression ([6]; Van Cutsem et al. 2001): 137 days
Response rate ([6]; Van Cutsem et al. 2001, P=0.027): 21%
Pharmacokinetic profile on co-administration of PHY906 [8]: did not alter the pharmacokinetic profile

Structure (SMILES): COc1cccc2c1C(=O)c1c(O)c3c(c(O)c1C2=O)C[C@@](O)(C(=O)CO)C[C@@H]3O[C@H]1C[C@H](N)[C@H](O)[C@H](C)O1 [doxorubicin, Doxorubicin]
Response rate ([7]; eight trials, 475 evaluable patients (range 0-35%)): 16%

From patent US7534455B2, “Herbal composition PHY906 and its use in chemotherapy” (Yale University, priority 2000, dated 2009)
